Experimental data reported in US11919902B2, “Aryl-bipyridine amine derivatives as phosphatidylinositol phosphate kinase inhibitors” (HiberCell, Inc., priority 2017, dated 2024).

What was measured:
GST tagged PIP4KtypeIIA = target: T1, GST tagged PIP4KtypeIIA (Homo sapiens, UniProt P48426); assay: ADP-glo kinase assay PIP4K 2A (PIP4KtypeIIA inhibition assay); type: biochemical; conditions: Table 3; compounds listed under IC50 range headings; 10 uM ATP, 0.5 nM PIP4KIIA
T1 construct: made in house; host or cells: E. coli
T1 sequence (P48426 1-406): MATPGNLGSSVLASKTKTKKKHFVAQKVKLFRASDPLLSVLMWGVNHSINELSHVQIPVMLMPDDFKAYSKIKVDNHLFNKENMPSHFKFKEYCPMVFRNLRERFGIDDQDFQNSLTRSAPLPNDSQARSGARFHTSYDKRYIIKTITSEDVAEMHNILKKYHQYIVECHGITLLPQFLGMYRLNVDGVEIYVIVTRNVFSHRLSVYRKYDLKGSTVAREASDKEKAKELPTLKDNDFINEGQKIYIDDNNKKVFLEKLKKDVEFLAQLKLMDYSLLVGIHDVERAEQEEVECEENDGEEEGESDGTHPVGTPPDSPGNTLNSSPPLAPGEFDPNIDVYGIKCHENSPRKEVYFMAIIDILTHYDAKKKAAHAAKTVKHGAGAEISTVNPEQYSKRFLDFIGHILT
How it was run: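 E. coli-expressed GST-PIP4KtypeIIA (0.5 nM final) was preincubated 1 h at 27 °C with compound (up to 4.8 μM, 5% DMSO) in PI5P/DOPE lipid in 50 mM HEPES pH 7.3 with 10 mM MgCl2. The reaction was started with 10 μM ATP (final) and run 1 h. ADP was read by ADP-Glo luminescence via a calibration curve, and IC50 was taken from % residual activity.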

GST tagged PIP4KtypeIIB = target: T2, GST tagged PIP4KtypeIIB (Homo sapiens, UniProt P78356); assay: Trans-FI P kinase assay PIP4K2B (PIP4KtypeIIB inhibition assay); type: biochemical; conditions: Table 4; compounds listed under IC50 range headings; 100 uM GTP, 5 nM PIP4KIIB; read-out: Trans-FI P kinase assays: PIP4K2B IC50
T2 construct: made in house; host or cells: E. coli
T2 sequence (P78356 1-416): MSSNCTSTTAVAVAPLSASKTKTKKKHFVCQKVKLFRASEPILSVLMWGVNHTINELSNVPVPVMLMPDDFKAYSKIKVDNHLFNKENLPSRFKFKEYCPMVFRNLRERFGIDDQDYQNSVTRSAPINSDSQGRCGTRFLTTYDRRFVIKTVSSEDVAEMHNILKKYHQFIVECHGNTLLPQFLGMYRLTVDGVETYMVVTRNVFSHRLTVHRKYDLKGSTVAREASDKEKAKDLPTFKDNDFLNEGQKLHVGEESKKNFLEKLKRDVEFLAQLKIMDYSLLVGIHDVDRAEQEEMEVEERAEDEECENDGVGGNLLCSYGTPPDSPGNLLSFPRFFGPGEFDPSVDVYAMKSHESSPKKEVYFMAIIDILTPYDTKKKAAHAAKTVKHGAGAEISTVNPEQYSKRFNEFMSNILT
How it was run: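 Purified GST-PIP4KIIB (5 nM final), 1 h preincubation with compound at 27 C, then 2 h reaction with 100 uM GTP and 80 uM PI5P plus DOPE carrier lipid in pH 7.3 HEPES/MgCl2/Triton buffer with 5% DMSO. GDP read by Transcreener FI fluorescence against a calibration curve; IC50 from % no-inhibitor activity vs log concentration.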

[1] = target: T3, PIP4K2A (full length protein, SignalChem) (Homo sapiens, UniProt P48426); assay: Kinase Assay PIP4K2 A (Sprint); ADP-Glo biochemical assay; conditions: Table 2; compounds listed under IC50 range headings
T3 construct: 4 nM PIP4K2A (full length protein, SignalChem); purchased SignalChem
T3 sequence (P48426 1-406): T1 sequence (P48426 1-406)
How it was run: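 Compounds (10-point, 3-fold dilutions) were pre-incubated 15 min at RT with an enzyme/substrate mix of 4 nM full-length PIP4K2A and 100 μM PI(5)P diC8 in 20 mM MOPS pH 7.2, 25 mM MgCl2, 0.005% Tween 20. A 60 μM ATP solution was added, reaction 1 h RT; ADP read by ADP-Glo luminescence, IC50 fitted from % inhibition vs DMSO.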

Row | SMILES | IC50 (GST tagged PIP4KtypeIIA) [nM] | IC50 (GST tagged PIP4KtypeIIB) [nM] | IC50 [1] [nM]
1 | O=C1CCCN1c1ccc(-c2cncc(-c3c[nH]c4ncc(Cl)cc34)c2)cc1 [Example 27, 1-(4-(5-(5-chloro-1H-pyrrolo[2,3-b]pyridin-3-yl)pyridin-3-yl)phenyl)pyrrolidin-2-one] | 100 to 1000 | 100 to 1000 | 5 to 100
2 | O=C1CCCN1c1ccc(-c2cncc(-c3c[nH]c4ncccc34)c2)cc1 [Example 28, 1-(4-(5-(1H-pyrrolo[2,3-b]pyridin-3-yl)pyridin-3-yl)phenyl)pyrrolidin-2-one] | 100 to 1000 | 100 to 1000 | 5 to 100
3 | O=C1CCCN1c1ccc(-c2cncc(-c3c[nH]c4ncncc34)c2)cc1 [Example 30, 1-(4-(5-(7H-pyrrolo[2,3-d]pyrimidin-5-yl)pyridin-3-yl)phenyl)pyrrolidin-2-one] | 100 to 1000 | 100 to 1000 | 5 to 100
4 | Cc1cnc2[nH]cc(-c3cncc(-c4ccc(N5CCCC5=O)cc4)c3)c2c1 [Example 31, 1-(4-(5-(5-methyl-1H-pyrrolo[2,3-b]pyridin-3-yl)pyridin-3-yl)phenyl)pyrrolidin-2-one] | 10 to 100 | 100 to 1000 | 5 to 100
5 | Cn1ccc(-c2cncc(-c3ccc(N4CCCC4=O)cc3)c2)cc1=O [Example 33, 1′-methyl-5-(4-(2-oxopyrrolidin-1-yl)phenyl)-[3,4′-bipyridin]-2′(1′H)-one] | > 5000 | > 5000 | < 5000
6 | COc1cnc2[nH]ccc2c1-c1cncc(-c2ccc(N3CCCC3=O)cc2)c1 [Example 34, 1-(4-(5-(5-methoxy-1H-pyrrolo[2,3-b]pyridin-4-yl)pyridin-3-yl)phenyl)pyrrolidin-2-one] | 100 to 1000 | 100 to 1000 | 5 to 100
7 | Cc1cnc2[nH]ccc2c1-c1cncc(-c2ccc(N3CCCC3=O)cc2)c1 [Example 35, 1-(4-(5-(5-methyl-1H-pyrrolo[2,3-b]pyridin-4-yl)pyridin-3-yl)phenyl)pyrrolidin-2-one] | 1000 to 2500 | 100 to 1000 | 100 to 1000
8 | O=C1CCCN1c1ccc(-c2cncc(-c3ccc(=O)[nH]c3)c2)cc1 [Example 36, 5′-(4-(2-oxopyrrolidin-1-yl)phenyl)-[3,3′-bipyridin]-6(1H)-one] | > 5000 | 2500 to 5000 | 1000 to 2500
9 | Cn1cc(-c2cncc(-c3ccc(N4CCCC4=O)cc3)c2)ccc1=O [Example 37, 1-methyl-5′-(4-(2-oxopyrrolidin-1-yl)phenyl)-[3,3′-bipyridin]-6(1H)-one] | > 5000 | > 5000 | 2500 to 5000
10 | Cn1cc(-c2cncc(-c3ccc(N4CCCC4=O)cc3)c2)c2cccnc21 [Example 39, 1-(4-(5-(1-methyl-1H-pyrrolo[2,3-b]pyridin-3-yl)pyridin-3-yl)phenyl)pyrrolidin-2-one] | 100 to 1000 | 100 to 1000 | 5 to 100
11 | O=C1CCCN1c1ccc(-c2cncc(-c3ccnc4c3OCCO4)c2)cc1 [Example 40, 1-[4-[5-(2,3-Dihydro-[1,4]dioxino[2,3-b]pyridin-8-yl)-3-pyridyl]phenyl]pyrrolidin-2-one] | 2500 to 5000 | 1000 to 2500 | 100 to 1000
12 | O=C1CCCN1c1ccc(-c2cncc(-c3ccncc3)c2)cc1 [Example 41, 1-[4-[5-(4-Pyridyl)-3-pyridyl]phenyl]pyrrolidin-2-one] | > 5000 | > 5000 | 1000 to 2500
13 | O=C1Cc2c(-c3cncc(-c4ccc(N5CCCC5=O)cc4)c3)ccnc2N1 [Example 42, 4-(5-(4-(2-oxopyrrolidin-1-yl)phenyl)pyridin-3-yl)-1,3-dihydro-2H-pyrrolo[2,3-b]pyridin-2-one] | 2500 to 5000 | 1000 to 2500 | 100 to 1000
14 | O=C1CCCN1c1ccc(-c2cncc(-c3ccnc4c3cnn4CCO)c2)cc1 [Example 44, 1-(4-(5-(1-(2-hydroxyethyl)-1H-pyrazolo[3,4-b]pyridin-4-yl)pyridin-3-yl)phenyl)pyrrolidin-2-one] | 100 to 1000 | 100 to 1000 | 100 to 1000
15 | O=C1NCCn2c1cc1c(-c3cncc(-c4ccc(N5CCCC5=O)cc4)c3)ccnc12 [Example 45, 4-(5-(4-(2-oxopyrrolidin-1-yl)phenyl)pyridin-3-yl)-8,9-dihydropyrido[3′,2′:4,5]pyrrolo[1,2-a]pyrazin-6(7H)-one] | 100 to 1000 | 10 to 100 | 5 to 100
16 | CN1CCn2c(cc3c(-c4cncc(-c5ccc(N6CCCC6=O)cc5)c4)ccnc32)C1=O [Example 46, 7-methyl-4-(5-(4-(2-oxopyrrolidin-1-yl)phenyl)pyridin-3-yl)-8,9-dihydropyrido[3′,2′:4,5]pyrrolo[1,2-a]pyrazin-6(7H)-one] | 100 to 1000 | 10 to 100 | 5 to 100
17 | O=C1c2cc3c(-c4cncc(-c5ccc(N6CCCC6=O)cc5)c4)ccnc3n2CCN1CC1CC1 [Example 47, 7-(cyclopropylmethyl)-4-(5-(4-(2-oxopyrrolidin-1-yl)phenyl)pyridin-3-yl)-8,9-dihydropyrido[3′,2′:4,5]pyrrolo[1,2-a]pyrazin-6(7H)-one] | 100 to 1000 | 10 to 100 | 5 to 100
18 | CC(O)c1cnc2[nH]cc(-c3cncc(-c4ccc(N5CCCC5=O)cc4)c3)c2c1 (stereo not drawn) [Example 48, 1-(4-(5-(5-(1-hydroxyethyl)-1H-pyrrolo[2,3-b]pyridin-3-yl)pyridin-3-yl)phenyl)pyrrolidin-2-one] | 100 to 1000 | 10 to 100 | 5 to 100
19 | CNC(=O)c1cc2c(-c3cncc(-c4ccc(N5CCCC5=O)cc4)c3)ccnc2o1 [Example 49, N-methyl-4-(5-(4-(2-oxopyrrolidin-1-yl)phenyl)pyridin-3-yl)furo[2,3-b]pyridine-2-carboxamide] | 10 to 100 | 10 to 100 | 5 to 100
20 | CN(C)C(=O)c1cc2c(-c3cncc(-c4ccc(N5CCCC5=O)cc4)c3)ccnc2o1 [Example 50, N,N-dimethyl-4-(5-(4-(2-oxopyrrolidin-1-yl)phenyl)pyridin-3-yl)furo[2,3-b]pyridine-2-carboxamide] | 100 to 1000 | 10 to 100 | 5 to 100
21 | N#Cc1[nH]c2ncccc2c1-c1cncc(-c2ccc(N3CCCC3=O)cc2)c1 [Example 51, 3-(5-(4-(2-oxopyrrolidin-1-yl)phenyl)pyridin-3-yl)-1H-pyrrolo[2,3-b]pyridine-2-carbonitrile] | 100 to 1000 | 10 to 100 | 5 to 100
22 | Cn1cc(-c2cncc(-c3ccc(N4CCCC4=O)cc3)c2)c2cn[nH]c2c1=O [Example 54, 6-methyl-4-(5-(4-(2-oxopyrrolidin-1-yl)phenyl)pyridin-3-yl)-1,6-dihydro-7H-pyrazolo[3,4-c]pyridin-7-one] | 100 to 1000 | 100 to 1000 | 5 to 100
23 | Cn1cc(-c2cncc(-c3ccc(N4CCCC4=O)cc3)c2)c2cnn(C)c2c1=O [Example 55, 1,6-dimethyl-4-(5-(4-(2-oxopyrrolidin-1-yl)phenyl)pyridin-3-yl)-1,6-dihydro-7H-pyrazolo[3,4-c]pyridin-7-one] | 100 to 1000 | 100 to 1000 | 5 to 100
24 | Cn1cc(-c2cncc(-c3ccc(N4CCCC4=O)cc3)c2)c2cc(N3CCNCC3)cnc21 [Example 56, 1-(4-(5-(1-methyl-5-(piperazin-1-yl)-1H-pyrrolo[2,3-b]pyridin-3-yl)pyridin-3-yl)phenyl)pyrrolidin-2-one] | 1000 to 2500 | 2500 to 5000 | 100 to 1000
25 | CC(=O)N(C)c1cc(-c2cncc(-c3ccc(N4CCCC4=O)cc3)c2)ccn1 [Example 57, N-methyl-N-(5-(4-(2-oxopyrrolidin-1-yl)phenyl)-[3,4′-bipyridin]-2′-yl)acetamide] | > 5000 | > 5000 | < 5000
